Target: BTK (Homo sapiens, UniProt Q06187)
Assay: biochemical
Settings: read-out: BTK inhibition (%), 0.75 uM BTK, […] probe 3l, 15 min preincubation

Sequence of BTK (Q06187 402-655 limits assumed): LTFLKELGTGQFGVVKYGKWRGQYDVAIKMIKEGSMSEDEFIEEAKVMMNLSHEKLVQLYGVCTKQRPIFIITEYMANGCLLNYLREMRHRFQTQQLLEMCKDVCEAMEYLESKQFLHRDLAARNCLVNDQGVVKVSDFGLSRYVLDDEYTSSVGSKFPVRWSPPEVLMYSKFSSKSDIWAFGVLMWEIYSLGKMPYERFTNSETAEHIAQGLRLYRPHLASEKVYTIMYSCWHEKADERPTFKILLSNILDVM

| Compound | inhibition at 10 µM [%] |
| --- | --- |
| C[C@@H](O)[C@H]1C(=O)N2C(C(=O)O)=C(S[C@@H]3CN[C@H](C(=O)N(C)C)C3)[C@H](C)[C@H]12 [PCM-0095036] | -14.8 |
| CCN(CC)CCN(Cc1ccc(-c2ccc(C(F)(F)F)cc2)cc1)C(=O)Cn1c(SCc2ccc(F)cc2)nc(=O)c2c1CCC2 [PCM-0095746] | -30.1 |
| O=C(O)c1ccccc1O [PCM-0090179] | -16.3 |
| CN(C)CCOc1ccc(-c2nc(-c3ccc4c(c3)CCC4=NO)c(-c3ccncc3)[nH]2)cc1 [PCM-0095262] | -2.1 |
| NC(=O)N/N=C/c1ccc([N+](=O)[O-])o1 [PCM-0085977] | 0.8 |
| Cc1c(-c2ccc(O)cc2)n(Cc2ccc(OCCN3CCCCCC3)cc2)c2ccc(O)cc12 [PCM-0095308] | 84 |
| C#Cc1cccc(Nc2ncnc3cc(OC)c(OCCCCCCC(=O)NO)cc23)c1 [PCM-0095078] | 87.6 |
| COC(=O)C1=C(C)NC(C)=C(C(=O)OCCN(C)Cc2ccccc2)C1c1cccc([N+](=O)[O-])c1 (stereo not drawn) [PCM-0064729] | 47.5 |
| CN(C)C(=O)COC(=O)Cc1ccc(OC(=O)c2ccc(N=C(N)N)cc2)cc1 [PCM-0095541] | -6.2 |
| CN(C)CCCn1cc(C2=C(c3c[nH]c4ccccc34)C(=O)NC2=O)c2ccccc21 [PCM-0095737] | 47.6 |
| COc1c(C)c2c(c(O)c1C/C=C(\C)CCC(=O)O)C(=O)OC2 [PCM-0090203] | 19.3 |
| Cc1cccc(-c2nn3c(c2-c2ccnc4ccc(C(N)=O)cc24)CCC3)n1 [PCM-0095269] | 11.7 |
| O[C@@H](COc1cccc2ncccc12)CN1CCN(C2c3ccccc3[C@@H]3[C@H](c4ccccc42)C3(F)F)CC1 (stereo partly drawn) [PCM-0095161] | 103 |
| CC(C)(C)c1cnc(CSc2cnc(NC(=O)C3CCNCC3)s2)o1 [PCM-0094965] | -6.2 |
| Cc1nc(-c2ccc(OCC(C)C)c(C#N)c2)sc1C(=O)O [PCM-0090390] | -3.4 |
| CN1C[C@@H]2C[C@H]1CN2c1cc2c(cc1F)c(=O)c(C(=O)O)cn2C1CC1 [PCM-0095547] | 10.2 |
| O=C(O)C1(Cc2cccc(Nc3nccs3)n2)CCC(Oc2cccc(Cl)c2F)CC1 (stereo not drawn) [PCM-0095334] | 102 |
| COc1cc2ncnc(Nc3ccc(F)c(Cl)c3)c2cc1NC(=O)/C=C/CN1CCCCC1 [PCM-0095444] | 18.6 |
| O=C(NC1CCOCC1)c1ccc(-c2cc(-c3cn[nH]c3-c3ccccn3)ccn2)cc1 [PCM-0095490] | 1.6 |
| COC(=O)C[C@](O)(CCCC(C)(C)O)C(=O)O[C@@H]1C(OC)=C[C@]23CCCN2CCc2cc4c(cc2[C@H]13)OCO4 [PCM-0216341] | 4.6 |
| COc1cc2ncnc(Nc3ccc(O)c(Br)c3)c2cc1OC [PCM-0095533] | 33.8 |
| CC(C)=CCC[C@](C)(O[C@@H]1O[C@H](CO)[C@@H](O)[C@H](O)[C@H]1O)[C@H]1CC[C@]2(C)[C@@H]1[C@H](O)C[C@@H]1[C@@]3(C)CC[C@H](O)C(C)(C)[C@@H]3CC[C@]12C [PCM-0216397] | 11.6 |

Continued, values first:

| inhibition at 10 µM [%] | Compound |
| --- | --- |
| 2.6 | Cc1ccccc1-c1cc(N2CCN(C)CC2)ncc1N(C)C(=O)C(C)(C)c1cc(C(F)(F)F)cc(C(F)(F)F)c1 [PCM-0215667] |
| -14.8 | CC(C)OC(=O)OCOP(=O)(CO[C@H](C)Cn1cnc2c(N)ncnc21)OCOC(=O)OC(C)C [PCM-0214620] |
| -14 | CCC[C@H](Nc1nc(-c2ccc(NC(=O)NCC)c(OC)c2)ncc1C)c1cccnc1 [PCM-0095772] |
| 2.3 | CC(=O)OC/C=C(\C)CCC=C(C)C [PCM-0216003] |
| 17.2 | O=C(O)c1cc(N=Nc2ccc(O)c(C(=O)O)c2)ccc1O [PCM-0214745] |
| 23.2 | CCCCCCCCCCCCCCCCCCCCCC(=O)O [PCM-0216151] |
| -4.6 | Nc1nc(NCCc2ccc(O)cc2)nc2nc(-c3ccco3)nn12 [PCM-0215654] |
| -3.4 | Cc1[nH]cnc1CN1CCc2c(c3ccccc3n2C)C1=O [PCM-0215666] |
| -21.8 | COC(=O)[C@@H]1[C@H]2C[C@H]3c4[nH]c5ccccc5c4CCN3C[C@@H]2CC[C@@H]1O [PCM-0214658] |
| 54.8 | O=C(O)/C(Cc1ccccc1[N+](=O)[O-])=N/Nc1nc(-c2ccc(Cl)c(Cl)c2)cs1 [PCM-0215282] |
| 7 | C[C@H]1[C@H](C)CC[C@]2(C(=O)O)CC[C@]3(C)C(=CC[C@@H]4[C@@]5(C)CCC(=O)C(C)(C)[C@@H]5CC[C@]43C)[C@H]12 [PCM-0215048] |
| -3.9 | CCCCCCCCCCCCCCCCO [PCM-0214755] |
| 2.8 | CO/N=C(\C(=O)N[C@@H]1C(=O)N2C(C(=O)OC(C)OC(C)=O)=C(COC(N)=O)CS[C@H]12)c1ccco1 (stereo partly drawn) [PCM-0215079] |
| -13.1 | Cc1cc(C)c(S(=O)(=O)n2cc(C)cc2C)c(C)c1 [PCM-0215336] |
| 10.8 | C[C@@H]1O[C@@H](OC[C@H]2O[C@@H](Oc3cc(O)c4c(c3)O[C@H](c3ccc(O)cc3)CC4=O)[C@H](O)[C@@H](O)[C@@H]2O)[C@H](O)[C@H](O)[C@H]1O [PCM-0216493] |
| -10.3 | COc1ccc([C@@H]2CC(=O)c3c(O)cc(O[C@@H]4O[C@H](CO)[C@@H](O)[C@H](O)[C@H]4O[C@@H]4O[C@@H](C)[C@H](O)[C@@H](O)[C@H]4O)cc3O2)cc1O [PCM-0214691] |

| inhibition at 10 µM [%] | Compound |
| --- | --- |
| 14.7 | COc1ccc(/C=C/c2cc(O)cc(O)c2)cc1O [PCM-0216438] |
| 10.1 | CCCCCCCCCC(C)=O [PCM-0215930] |
| 0.8 | Cc1nc(N(C)C(=O)Cc2ccc(-c3ccccn3)cc2)sc1S(N)(=O)=O [PCM-0215334] |
| -9.3 | C=C1[C@H](OC(=O)/C=C(\C)CC)C[C@@H](C(C)C)[C@@H]2[C@@H]([C@@H](C)OC(C)=O)C(=O)C[C@@H]12 [PCM-0216448] |
| -13.9 | C/C(=N\NC(=S)N1CCC1)c1ccccn1 [PCM-0095797] |
| -7.7 | CC(=O)N[C@@H](CC(=O)O)C(=O)N[C@@H](CCC(=O)O)C(=O)N[C@H](C(=O)N[C@H](C=O)CC(=O)O)C(C)C [PCM-0215827] |
| 26.3 | CN1CCN(Cc2ccc(NC(=O)Cc3ccc(Oc4cc(NC(=O)C5CC5)ncn4)cc3)cc2C(F)(F)F)CC1 [PCM-0215373] |
| -17.9 | C[N+](C)(C)CCOP(=O)(O)OP(=O)([O-])OC[C@H]1O[C@@H](n2ccc(N)nc2=O)[C@H](O)[C@@H]1O [PCM-0215877] |
| 0.8 | C=C1CCOC1=O [PCM-0215909] |
| 25.5 | NC[C@H]1O[C@H](O[C@H]2[C@H](O[C@@H]3O[C@H](CO)[C@@H](O)[C@H]3O)[C@@H](O)[C@H](N)C[C@@H]2N)[C@H](N)[C@@H](O)[C@@H]1O [PCM-0215219] |
| -5.4 | O=C1C(N(CO)C(=O)NCO)N(CO)C(=O)N1CO (stereo not drawn) [PCM-0216098] |
| 9.3 | OCc1ccc(O)cc1 [PCM-0215041] |
| 5.5 | CC(C)(CO)n1cc(C(=O)c2cncc(NC(=O)Cc3ccc(Cl)cn3)c2)c2cnc(N)nc21 [PCM-0215853] |
| 20.1 | S=C(N/N=C1\CCCc2cccnc21)N1CCN(c2ccccn2)CC1 [PCM-0215896] |
| 116 | O=C(c1ccc(Oc2ccccc2)cc1Cl)c1c[nH]c2ncnc(N[C@@H]3CC[C@@H](CO)OC3)c12 [PCM-0216245] |
| 1.4 | Cc1c(C(=O)N2CCOc3ccc(-c4ccc(N)nc4)cc3C2)ccc(S(C)(=O)=O)c1F [PCM-0215244] |

Reference: paper PMC8041284, “Tunable Methacrylamides for Covalent Ligand Directed Release Chemistry” (Journal of the American Chemical Society, 2021)
